Data from US20220267329A1, “Dihydro-Spiro[Indoline-3:1'-Isoquinolin]-2-Ones and Their Analogues and Derivatives and Methods of Treating Cancer and Other Diseases” (The University of Buea, priority 2019, published 2022).

Columns and labels:
[1] = tested on: ovarian cancer cell lines; assay: NCI-60 screen, ovarian cell lines; assay type: cell-based, human; conditions: NCI-60 preliminary screening; for inhibition at 10 µM: Homo sapiens, read-out: Percent (%) Inhibition of Cancer Cell Line, Ovarian
Description: (§1) Screening for Anticancer Activity—The NCI-60 panel: Representative compounds of the invention were subjected to anticancer testing in the National Cancer Institute (NCI) 60 screen. In this screen compounds are tested on a panel of sixty human cancer cell lines chosen from the following cancers: leukemia, nonsmall cell lung cancer (NSCLC), colon, melanoma, central nervous system (CNS), ovarian, renal, prostate and breast. The assay method is found on the NCI website (dtp.cancer.gov/discovery_development/nci-60/methodology.htm). In the NCI-60 assay, test compounds undergo preliminary screening at 10 μM concentration. The data is reported as percent growth relative to “no drug” control; therefore values between 0 and 100% denote growth inhibition.

[2] = target: sphingosine-1-phosphate receptor 1 (S1PR1) (Homo sapiens, UniProt P21453); assay: Radioligand binding to sphingosine-1-phosphate receptor 1; conditions: test compound 100 nM, 0.2 nM radioligand; read-out: % INHIBITION of binding to the SIP1 Receptor
sphingosine-1-phosphate receptor 1 (S1PR1), sequence (P21453 whole entry, species assumed): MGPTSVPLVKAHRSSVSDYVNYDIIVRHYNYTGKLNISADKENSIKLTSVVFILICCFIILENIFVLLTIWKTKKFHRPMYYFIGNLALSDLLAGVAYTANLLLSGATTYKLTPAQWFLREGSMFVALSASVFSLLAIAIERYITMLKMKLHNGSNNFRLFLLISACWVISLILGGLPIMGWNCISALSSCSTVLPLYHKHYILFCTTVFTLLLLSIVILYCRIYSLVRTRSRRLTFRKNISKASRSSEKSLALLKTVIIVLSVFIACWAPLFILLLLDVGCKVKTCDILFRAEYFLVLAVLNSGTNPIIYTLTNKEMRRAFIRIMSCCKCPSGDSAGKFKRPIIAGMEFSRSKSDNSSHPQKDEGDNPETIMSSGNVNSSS
Description: The binding of a representative group of compounds of this invention to sphingosine-1-phosphate receptor 1 (S1PR1) was determined by a published procedure (Rosenberg et al., 2016). In this assay, the test compound at 100 nM concentration was incubated with 0.2 nM radioligand. Active compounds or “hits” are defined as compounds that inhibit radioligand binding by 50% or more. […] This finding is significant because it establishes the 3′,4′-dihydro-2′H-[…]-2-one hybrid scaffold as an entirely new class of ligands for the sphingosine-1-phosphate receptors.

[3] = tested on: renal cancer cell lines; assay: NCI-60 screen, renal cell lines; assay type: cell-based, human; conditions: NCI-60 preliminary screening; for inhibition at 10 µM: Homo sapiens, read-out: Percent (%) Inhibition of Cancer Cell Line, Renal Cell
Description: as §1

[4] = tested on: nonsmall cell lung cancer (NSCLC) cell lines; assay: NCI-60 screen, NSCLC cell lines; assay type: cell-based, human; conditions: NCI-60 preliminary screening; for inhibition at 10 µM: Homo sapiens, read-out: Percent (%) Inhibition of Cancer Cell Line, NSCLC
Description: as §1

[5] = tested on: EMT6 breast cancer cell line; assay: Antiproliferative screening on EMT6 cancer cells; assay type: cell-based; conditions: for activity at 100 µM: Mus musculus, EMT6, no ligand = 100, read-out: EMT6 cell proliferation (%)
Description: Representative compounds were screened tested for antiproliferative activity on the EMT6 breast cancer cell line. Screening was carried out according to published procedures (Zeng et al., 2014). In this screen, compounds were tested at 100 μM concentration.

[6] = tested on: central nervous system (CNS) cancer cell lines; assay: NCI-60 screen, CNS cell lines; assay type: cell-based; conditions: Homo sapiens, NCI-60 preliminary screening, read-out: Percent (%) Inhibition of Cancer Cell Line, CNS
Description: as §1

[7] = tested on: leukemia cell lines; assay: NCI-60 screen, leukemia cell lines; assay type: cell-based; conditions: Homo sapiens, NCI-60 preliminary screening, read-out: Percent (%) Inhibition of Cancer Cell Line, Leukemia
Description: as §1

[8] = tested on: panel of sixty human cancer cell lines; assay: NCI-60 screen, whole panel; assay type: cell-based; conditions: 10 μM
Description: as §1

[9] = tested on: breast cancer cell lines; assay: NCI-60 screen, breast cell lines; assay type: cell-based, human; conditions: NCI-60 preliminary screening; for inhibition at 10 µM: Homo sapiens, read-out: Percent (%) Inhibition of Cancer Cell Line, Breast
Description: as §1

[10] = tested on: prostate cancer cell lines; assay: NCI-60 screen, prostate cell lines; assay type: cell-based, human; conditions: NCI-60 preliminary screening; for inhibition at 10 µM: Homo sapiens, Prostate cell, read-out: Percent (%) Inhibition of Cancer Cell Line, Prostate
Description: as §1

[11] = tested on: melanoma cell lines; assay: NCI-60 screen, melanoma cell lines; assay type: cell-based; conditions: Homo sapiens, NCI-60 preliminary screening, read-out: Percent (%) Inhibition of Cancer Cell Line, Melanoma
Description: as §1

Compound	inhibition at 0.1 µM [2] [%]	inhibition at 10 µM [3] [%]	inhibition at 10 µM [4] [%]	activity at 100 µM [5] [%]	inhibition at 10 µM [7] [%]	inhibition at 10 µM [9] [%]	other results
O=C1N(Cc2ccc(Cl)c(Cl)c2)c2ccccc2C12NCCc1cccc(O)c12 (centres unmarked) [Compound 1g, 1-(3,4-Dichlorobenzyl)-8′-hydroxy-3′,4′-dihydro-2′H-spiro[indoline-3,1′-isoquinolin]-2-one]	–	–	–	91.1	–	–	melting point: 109 to 113 °C
COc1ccc2c(c1)CCNC21C(=O)N(Cc2ccc(C)cc2)c2ccccc21 (centres unmarked) [Compound 4e, 6′-Methoxy-1-(4-methylbenzyl)-3′,4′-dihydro-2′H-spiro[indoline-3,1′-isoquinolin]-2-one]	38.1	30 to 46	25 to 28	–	–	25 to 30	antiproliferative activity in the NCI-60 panel [8]: most potent analogues
O=C1N(Cc2ccc(Cl)c(Cl)c2)c2ccccc2C12NCCc1cc(O)ccc12 (centres unmarked) [Compound 2g, 1-(3,4-Dichlorobenzyl)-6′-hydroxy-3′,4′-dihydro-2′H-spiro[indoline-3,1′-isoquinolin]-2-one]	–	22 to 36	25	56.5	19	13	inhibition of EMT6 cell proliferation ([5]; 100 μM): as much as fifty percent; inhibition at 10 µM [10]: 19%
O=C1Nc2ccccc2C12NCCc1cccc(O)c12 (centres unmarked) [Compound 1a, 8′-Hydroxy-3′,4′-dihydro-2′H-spiro[indoline-3,1′-isoquinolin]-2-one]	–	14	15	104	–	–	inhibition at 10 µM [1]: 10%
COc1cc2c(cc1OC)C1(NCC2)C(=O)N(Cc2ccc(Br)cc2)c2ccc(Cl)cc21 (centres unmarked) [Compound 5f, 1-(4-Bromobenzyl)-5-chloro-6′,7′-dimethoxy-3′,4′-dihydro-2′H-spiro[indoline-3,1′-isoquinolin]-2-one]	–	–	–	–	38 to 55	27 to 36	antiproliferative activity in the NCI-60 panel [8]: most potent analogues; inhibition at 10 µM [1]: 39%; inhibition at 10 µM [11]: 44%; inhibition at 10 µM [10]: 52%
COc1ccc2c(c1)CCNC21C(=O)Nc2ccccc21 (centres unmarked) [Compound 4a, 6′-Methoxy-3′,4′-dihydro-2′H-spiro[indoline-3,1′-isoquinolin]-2-one]	36.2	20	–	–	–	–	inhibition at 10 µM [6]: 20%
O=C1N(Cc2ccc(F)cc2)c2ccccc2C12NCCc1cccc(O)c12 (centres unmarked) [Compound 1d, 1-(4-Fluorobenzyl)-8′-hydroxy-3′,4′-dihydro-2H-spiro[indoline-3,1′-isoquinolin]-2-one]	≥ 50	–	–	120	–	–	melting point: 119 to 121 °C
O=C1N(Cc2ccc(Cl)cc2)c2ccccc2C12NCCc1cccc(O)c12 (centres unmarked) [Compound 1e, 1-(4-Chlorobenzyl)-8′-hydroxy-3′,4°-dihydro-2′H-spiro[indoline-3,1′-isoquinolin]-2-one]	–	–	–	–	–	–	EMT6 cell proliferation (%) ([5]; 100 μM, no ligand = 100): 77.91%; Percent (%) Inhibition of Cancer Cell Line, Ovarian ([1]; 10 μM): 14%; Percent (%) Inhibition of Cancer Cell Line, Breast ([9]; 10 μM): 12%; Percent (%) Inhibition of Cancer Cell Line, Renal Cell ([3]; 10 μM): 35%; Percent (%) Inhibition of Cancer Cell Line, Prostate ([10]; 10 μM): 14%; Percent (%) Inhibition of Cancer Cell Line, NSCLC ([4]; 10 μM): 30%

Second part, led by results:

inhibition at 0.1 µM [2] [%]	Compound	inhibition at 10 µM [3] [%]	inhibition at 10 µM [4] [%]	activity at 100 µM [5] [%]	inhibition at 10 µM [7] [%]	inhibition at 10 µM [9] [%]	other results
41.1	COc1cc2c(c(OC)c1OC)C1(NCC2)C(=O)Nc2ccc(Cl)cc21 (centres unmarked) [Compound 6b, 5-Chloro-6′,7′,8′-trimethoxy-3′,4′-dihydro-2′H-spiro[indoline-3,1′-isoquinolin]-2-one]	28 to 31	20	–	–	–	inhibition at 10 µM [1]: 20%
37.6	COc1cc2c(cc1OC)C1(NCC2)C(=O)Nc2c(Br)cc(Br)cc21 (centres unmarked) [Compound 5c, 5,7-dibromo-6′,7′-dimethoxy-3′,4′-dihydro-2′H-spiro[indoline-3,1′-isoquinolin]-2-one]	27 to 35	–	–	24	–	inhibition at 10 µM [6]: 25%
≥ 50	COc1cc2c(cc1OC)C1(NCC2)C(=O)Nc2ccc(Cl)cc21 (centres unmarked) [Compound 5b, 5-Chloro-6′,7′-dimethoxy-3′,4′-dihydro-2′H-spiro[indoline-3,1′-isoquinolin]-2-one]	22	–	–	–	–	inhibition at 10 µM [6]: 32%
32.4	COc1cc2c(cc1OC)C1(NCC2)C(=O)N(Cc2ccc(C)cc2)c2ccccc21 (centres unmarked) [Compound 5e, 6′,7′-Dimethoxy-1-(4-methylbenzyl)-3′,4′-dihydro-2′H-spiro[indoline-3,1′-isoquinolin]-2-one]	25	–	–	24 to 48	22 to 24	antiproliferative activity in the NCI-60 panel [8]: most potent analogues; inhibition at 10 µM [10]: 42%
